Results as given in US10968178B2, “IP6K inhibitors” (TAKEDA PHARMACEUTICAL COMPANY LIMITED, priority 2017, dated 2021).

Assays:
Assay type in all cases: biochemical
human IP6K2 = target: T1, human IP6K2 (Homo sapiens, UniProt Q9UHH9); assay: IP6K enzyme inhibitory assay (ADP-Glo Kinase Assay), human IP6K2; conditions: compound concentration 0.1 μM; for inhibition at 0.1 µM: read-out: ADP-Glo method inhibitory rate (%) human IP6K2
T1 construct: human IP6K2 (1-426) gene; GST; made in house; host or cells: Sf-9 insect cells
T1 sequence (Q9UHH9 1-426): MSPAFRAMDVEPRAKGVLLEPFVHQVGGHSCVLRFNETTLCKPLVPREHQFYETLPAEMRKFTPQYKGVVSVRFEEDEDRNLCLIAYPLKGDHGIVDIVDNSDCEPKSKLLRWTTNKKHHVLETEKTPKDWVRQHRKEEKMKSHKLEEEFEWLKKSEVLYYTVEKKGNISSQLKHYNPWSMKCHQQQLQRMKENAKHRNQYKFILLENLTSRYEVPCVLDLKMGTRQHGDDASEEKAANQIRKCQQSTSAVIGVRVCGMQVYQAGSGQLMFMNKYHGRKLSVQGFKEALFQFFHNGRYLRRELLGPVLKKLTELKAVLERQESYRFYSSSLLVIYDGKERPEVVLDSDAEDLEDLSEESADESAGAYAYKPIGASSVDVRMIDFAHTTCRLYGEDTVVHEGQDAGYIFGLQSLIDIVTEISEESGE
Summary of the method: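 The inhibitory activity against human IP6K2 was measured with Promega's ADP-Glo Kinase Assay in 384 well plates. Test compound, diluted in assay buffer (20 mM HEPES (pH 7.5), 6 mM MgCl2, 0.01% Tween-20, 1 mM DTT), was added at 2 μL. Adding 2 μL of diluted enzyme started the reaction, which ran for 60 min at room temperature. Next, 3 μL ADP-Glo solution (30 min) and 6 μL Kinase-Detection solution (60 min) were added, and luminescence was read on an Envision plate reader.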

human IP6K1 = target: T2, human IP6K1 (Homo sapiens, UniProt Q92551); assay: IP6K enzyme inhibitory assay (ADP-Glo Kinase Assay), human IP6K1; conditions: compound concentration 0.1 μM; for inhibition at 0.1 µM: read-out: ADP-Glo method inhibitory rate (%) human IP6K1
T2 construct: human IP6K1 (1-441) gene; GST; made in house; host or cells: Sf-9 insect cells
T2 sequence (Q92551 whole entry): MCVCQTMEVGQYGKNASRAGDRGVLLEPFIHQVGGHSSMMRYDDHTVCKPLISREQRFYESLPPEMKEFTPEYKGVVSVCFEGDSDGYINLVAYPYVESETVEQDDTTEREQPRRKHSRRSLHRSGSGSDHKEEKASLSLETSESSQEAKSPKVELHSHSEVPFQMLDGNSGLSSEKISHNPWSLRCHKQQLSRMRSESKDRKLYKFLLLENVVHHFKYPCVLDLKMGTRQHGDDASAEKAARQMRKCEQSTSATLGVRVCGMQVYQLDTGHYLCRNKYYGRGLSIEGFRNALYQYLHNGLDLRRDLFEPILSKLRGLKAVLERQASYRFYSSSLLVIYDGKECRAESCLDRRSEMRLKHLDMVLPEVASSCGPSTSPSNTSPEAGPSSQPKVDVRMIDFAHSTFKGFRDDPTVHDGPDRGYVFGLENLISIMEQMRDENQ
Summary of the method: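 Inhibition of human IP6K1 was determined with Promega's ADP-Glo Kinase Assay in 384 well plates. Test compound diluted in assay buffer (20 mM HEPES (pH 7.5), 6 mM MgCl2, 0.01% Tween-20, 1 mM DTT) was added at 2 μL, then 2 μL of enzyme started the reaction for 60 min at room temperature. Next came 3 μL ADP-Glo solution for 30 min and 6 μL Kinase-Detection solution for 60 min. Luminescence was read on an Envision plate reader.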

human IP6K3 = target: T3, human IP6K3 (Homo sapiens, UniProt Q96PC2); assay: IP6K enzyme inhibitory assay (ADP-Glo Kinase Assay), human IP6K3; conditions: compound concentration 0.1 μM; for inhibition at 0.1 µM: read-out: ADP-Glo method inhibitory rate (%) human IP6K3
T3 construct: human IP6K3 (1-410) gene; made in house; host or cells: BL21 (DE3) Escherichia coli
T3 sequence (Q96PC2 1-410): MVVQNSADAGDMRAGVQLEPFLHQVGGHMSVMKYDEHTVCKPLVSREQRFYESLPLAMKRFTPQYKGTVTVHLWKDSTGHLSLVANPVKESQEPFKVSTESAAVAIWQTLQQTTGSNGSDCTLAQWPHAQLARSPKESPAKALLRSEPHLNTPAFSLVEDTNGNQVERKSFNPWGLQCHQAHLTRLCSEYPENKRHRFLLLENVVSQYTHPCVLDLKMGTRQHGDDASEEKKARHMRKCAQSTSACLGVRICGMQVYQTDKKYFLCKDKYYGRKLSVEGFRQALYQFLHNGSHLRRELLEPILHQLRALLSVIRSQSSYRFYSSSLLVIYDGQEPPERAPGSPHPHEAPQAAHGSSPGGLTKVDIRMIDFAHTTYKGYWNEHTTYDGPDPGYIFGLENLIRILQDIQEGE
Summary of the method: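 Recombinant human IP6K (IP6K3 residues 1-410, E. coli, Ni-NTA purified) incubated with compound in 20 mM HEPES pH 7.5, 6 mM MgCl2, 0.01% Tween-20, 1 mM DTT for 60 min at room temperature. ADP formed read as luminescence by ADP-Glo.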

Structure (SMILES)	inhibition at 0.1 µM (human IP6K2) [%]	inhibition at 0.1 µM (human IP6K1) [%]	inhibition at 0.1 µM (human IP6K3) [%]	ADP-Glo method inhibitory rate (%) human IP6K2 (human IP6K2) [%]	ADP-Glo method inhibitory rate (%) human IP6K1 (human IP6K1) [%]	ADP-Glo method inhibitory rate (%) human IP6K3 (human IP6K3) [%]
Cc1cncc(O[C@H]2CC[C@@]3(CC2)C(=O)Nc2ccc(C(=O)O)cc23)c1 [Example 33, (1r,4r)-4-((5-methylpyridin-3-yl)oxy)-2′-oxo-1′,2′-dihydrospiro[cyclohexane-1,3′-indole]-5′-carboxylic acid]	40	37	74	–	–	–
Cc1ccc(O[C@H]2CC[C@@]3(CC2)C(=O)Nc2ccc(C(=O)O)cc23)c(C)c1 [Example 47, (1r,4r)-4-(2,4-dimethylphenoxy)-2′-oxo-1′,2′-dihydrospiro[cyclohexane-1,3′-indole]-5′-carboxylic acid]	–	–	–	96	99	99
O=C(O)c1ccc2c(c1)[C@]1(CC[C@@H](Oc3ccc(F)cn3)CC1)C(=O)N2 [Example 22, (1r,4r)-4-((5-fluoropyridin-2-yl)oxy)-2′-oxo-1′,2′-dihydrospiro[cyclohexane-1,3′-indole]-5′-carboxylic acid]	72	72	90	–	–	–
Cc1c(Cl)cnc(O[C@H]2CC[C@]3(CC2)C(=O)Nc2ccc(C(=O)O)nc23)c1C#N [Example 106, (1s,4s)-4-((5-chloro-3-cyano-4-methylpyridin-2-yl)oxy)-2′-oxo-1′,2′-dihydrospiro[cyclohexane-1,3′-pyrrolo[3,2-b]pyridine]-5′-carboxylic acid]	97	96	95	–	–	–
Cc1ccc(O[C@H]2CC[C@@]3(CC2)C(=O)Nc2ccc(C(=O)O)cc23)nc1 [Example 20, (1r,4r)-4-((5-methylpyridin-2-yl)oxy)-2′-oxo-1′,2′-dihydrospiro[cyclohexane-1,3′-indole]-5′-carboxylic acid]	95	79	98	–	–	–
O=C(O)c1ccc2c(c1)[C@]1(CC[C@@H](Oc3ccc(F)cc3Cl)CC1)C(=O)N2 [Example 68, (1r,4r)-4-(2-chloro-4-fluorophenoxy)-2′-oxo-1′,2′-dihydrospiro[cyclohexane-1,3′-indole]-5′-carboxylic acid]	98	93	98	–	–	–
O=C(O)c1ccc2c(n1)[C@]1(CC[C@H](Oc3ncc(C(F)(F)F)cc3Cl)CC1)C(=O)N2 [Example 115, (1s,4s)-4-((3-chloro-5-(trifluoromethyl)pyridin-2-yl)oxy)-2′-oxo-1′,2′-dihydrospiro[cyclohexane-1,3′-pyrrolo[3,2-b]pyridine]-5′-carboxylic acid]	99	97	99	–	–	–
O=C(O)c1ccc2c(c1)[C@]1(CC[C@@H](Oc3ccc(C(F)(F)F)nc3)CC1)C(=O)N2 [Example 6, (1r,4r)-2′-oxo-4-((6-(trifluoromethyl)pyridin-3-yl)oxy)-1′,2′-dihydrospiro[cyclohexane-1,3′-indole]-5′-carboxylic acid]	93	96	97	–	–	–
O=C(O)c1ccc2c(c1)[C@]1(CC[C@@H](Oc3cc(F)cc(Cl)c3)CC1)C(=O)N2 [Example 64, (1r,4r)-4-(3-chloro-5-fluorophenoxy)-2′-oxo-1′,2′-dihydrospiro[cyclohexane-1,3′-indole]-5′-carboxylic acid]	93	80	94	–	–	–
O=C(O)c1ccc2c(n1)[C@]1(CC[C@@H](Oc3ncc(Cl)cc3C(F)(F)F)CC1)C(=O)N2 [Example 99, (1r,4r)-4-((5-chloro-3-(trifluoromethyl)pyridin-2-yl)oxy)-2′-oxo-1′,2′-dihydrospiro[cyclohexane-1,3′-pyrrolo[3,2-b]pyridine]-5′-carboxylic acid]	64	51	83	–	–	–
